# Measurements published in patent US20260008758A1, “LINEAR DIPEPTIDYL PEPTIDASE 1 INHIBITORS AND USES THEREOF” (Insmed Incorporated, priority 2024, published 2026).
# What was measured:
# human DPP1 enzyme = human DPP1 enzyme (Homo sapiens (Human), UniProt P53634); experiment: Human DPP1 enzyme IC50 assay; format: biochemical; settings: recombinant human DPP1, H-Gly-Arg-AMC substrate 400 μM
# How it was run: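 Fluorogenic readout (350/450 nm, every 5 min over 90 min, 37°C) of H-Gly-Arg-AMC cleavage at 400 μM final substrate. Compounds met activated DPP1 first for a 10-min 37°C pre-incubation in MES buffer pH 6.0 with DTT, 1% DMSO final. Four-parameter sigmoidal fit gave IC50.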
# DPP1 in HL-60 cells = DPP1 in HL-60 cells (Homo sapiens (Human), UniProt P53634); experiment: DPP1 Cell IC50 assay; format: cell-based; settings: H-Gly-Phe-AFC substrate, 60 min pre-incubation
# Method: Media was changed every three to four days and cells were not allowed to exceed 1×10^6 cells per mL. Prior to assay, cells were collected by centrifugation at 500 rcf for 3 minutes, resuspended in PBS and counted. Cells were diluted in PBS to a concentration of 5×10^5 live cells per mL and transferred to black 96-well plates for assay, 60 μL per well. Test articles were diluted in PBS plus 0.5% DMSO, and 20 μL was added to each assay well. Compound was allowed to pre-incubate with cells with gentle shaking at 100 rpm for 60 minutes at 37° C. in a cell culture incubator maintained at 5% CO2, after which 20 μL of 500 μM H-Gly-Phe-AFC substrate (MP Biomedicals; Solon, OH) was added to each well. Plates were returned to the incubator with shaking at 100 rpm for 30 minutes, after which fluorescence was measured at Excitation/Emission 400/505 nm. % Inhibition was calculated from RFU values compared to control cell wells that received only PBS plus 0.5% DMSO. IC50 values for each compound were calculated via the XLFit (IDBS Version 5.3.1.3) Add-On to Microsoft Excel using the four parameter fit equation y=(A+((B-A)/(1+((C/x)^D)))), which appears as equation number 205 (4 Parameter Logistic Model or Sigmoidal Dose-Response Model) in XLFit.
# Sequence of human DPP1 enzyme (P53634 25-134): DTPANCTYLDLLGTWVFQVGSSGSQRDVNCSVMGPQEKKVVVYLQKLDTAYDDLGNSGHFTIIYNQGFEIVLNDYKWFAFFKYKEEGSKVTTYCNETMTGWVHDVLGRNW
# Sequence of human DPP1 enzyme (P53634 231-394): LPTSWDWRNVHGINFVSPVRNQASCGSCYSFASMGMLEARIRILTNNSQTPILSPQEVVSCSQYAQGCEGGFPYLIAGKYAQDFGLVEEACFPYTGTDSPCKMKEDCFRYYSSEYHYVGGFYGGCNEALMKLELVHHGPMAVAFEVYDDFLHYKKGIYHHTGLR
# Sequence of human DPP1 enzyme (P53634 395-463): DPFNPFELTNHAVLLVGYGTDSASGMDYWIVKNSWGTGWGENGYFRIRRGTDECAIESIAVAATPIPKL
# Sequence of DPP1 in HL-60 cells (P53634 25-134): as the sequence (P53634 25-134) above
# Sequence of DPP1 in HL-60 cells (P53634 231-394): as the sequence (P53634 231-394) above
# Sequence of DPP1 in HL-60 cells (P53634 395-463): as the sequence (P53634 395-463) above
SMILES,IC50 (human DPP1 enzyme),IC50 (DPP1 in HL-60 cells)
"COCCN(C)CCn1c(=O)oc2ccc(-c3ccc(C[C@@H](C#N)NC(=O)[C@](C)(N)C4CCCC4)cc3)cc21 [Compound 258B, (2R)-2-amino-N-[(1S)-1-cyano-2-[4-(3-{2-[(2-methoxyethyl)(methyl)amino]ethyl}-2-oxo-1,3-benzoxazol-5-yl)phenyl]ethyl]-2-cyclopentylpropanamide]",≤ 5 nM,1 to 2.5 nM
"CN(C)C[C@H](O)C(=O)N[C@H](C#N)Cc1cc2c(cc1F)-c1ccc(C#N)cc1CO2 [Compound 277A, (2S)—N-[(1S)-1-cyano-2-{8-cyano-2-fluoro-6H-benzo[c]chromen-3-yl}ethyl]-3-(dimethylamino)-2-hydroxypropanamide]",≥ 15 nM,≥ 2.5 nM
"Cn1c(=O)oc2ccc(-c3ccc(C[C@@H](C#N)NC(=O)C4(N)CCCC45CC5)cc3)cc21 (stereo partly drawn) [Compound 222, 4-amino-N-[(1S)-1-cyano-2-[4-(3-methyl-2-oxo-1,3-benzoxazol-5-yl)phenyl]ethyl]spiro[2.4]heptane-4-carboxamide]",≤ 5 nM,1 to 2.5 nM
"COCCN(C)CCn1c(=O)oc2ccc(-c3ccc(C[C@@H](C#N)NC(=O)[C@@](C)(N)C4CCC4)c(F)c3)cc21 [Compound 270A, (2S)-2-amino-N-[(1S)-1-cyano-2-[2-fluoro-4-(3-{2-[(2-methoxyethyl)(methyl)amino]ethyl}-2-oxo-1,3-benzoxazol-5-yl)phenyl]ethyl]-2-cyclobutylpropanamide]",≥ 15 nM,≥ 2.5 nM
"CC(C)C(C)(N)C(=O)N[C@H](C#N)Cc1ccc(-c2ccc3oc(=O)n(C)c3c2)cc1 (stereo partly drawn) [Compound 172, 2-amino-N-[(1S)-1-cyano-2-[4-(3-methyl-2-oxo-1,3-benzoxazol-5-yl)phenyl]ethyl]-2,3-dimethylbutanamide]",5 to 15 nM,1 to 2.5 nM
"Cn1c(=O)oc2ccc(-c3ccc(C[C@@H](C#N)NC(=O)[C@@H](N)Cc4cccnc4)cc3)cc21 [Compound 202, (S)-2-amino-N—((S)-1-cyano-2-(4-(3-methyl-2-oxo-2,3-dihydrobenzo[d]oxazol-5-yl)phenyl)ethyl)-3-(pyridin-3-yl)propanamide]",5 to 15 nM,≥ 2.5 nM
"Cn1c(=O)oc2ccc(-c3ccc(C[C@@H](C#N)NC(=O)[C@@H](O)CN)cc3)cc21 [Compound 110, (2S)-3-amino-N-[(1S)-1-cyano-2-[4-(3-methyl-2-oxo-1,3-benzoxazol-5-yl)phenyl]ethyl]-2-hydroxypropanamide]",≥ 15 nM,≥ 2.5 nM
"Cn1c(=O)oc2ccc(-c3ccc(C[C@@H](C#N)NC(=O)[C@@H](N)C4CCCO4)cc3)cc21 (stereo in doubt) [Compound 212, (2S)-2-amino-N-[(1S)-1-cyano-2-[4-(3-methyl-2-oxo-1,3-benzoxazol-5-yl)phenyl]ethyl]-2-[(2R)-oxolan-2-yl]acetamide]",≤ 5 nM,1 to 2.5 nM
"Cn1c(=O)oc2ccc(-c3ccc(C[C@@H](C#N)NC(=O)[C@H](N)CCO)cc3)cc21 [Compound 169, (2R)-2-amino-N-[(1S)-1-cyano-2-[4-(3-methyl-2-oxo-1,3-benzoxazol-5-yl)phenyl]ethyl]-4-hydroxybutanamide]",≥ 15 nM,≥ 2.5 nM
"CN1CCC2(CCc3ccc(-c4ccc(C[C@@H](C#N)NC(=O)C(C)(N)C5CCC5)c(F)c4)cc32)CC1 (stereo partly drawn) [Compound 269, 2-amino-N—((S)-1-cyano-2-(2-fluoro-4-(1′-methyl-2,3-dihydrospiro[indene-1,4′-piperidin]-6-yl)phenyl)ethyl)-2-cyclobutylpropanamide]",≤ 5 nM,≥ 2.5 nM
"Cn1c(=O)oc2ccc(-c3ccc(C[C@@H](C#N)NC(=O)[C@@H](N)C4CCCO4)cc3)cc21 (stereo in doubt) [Compound 210, (2S)-2-amino-N-[(1S)-1-cyano-2-[4-(3-methyl-2-oxo-1,3-benzoxazol-5-yl)phenyl]ethyl]-2-[(2S)-oxolan-2-yl]acetamide]",5 to 15 nM,≥ 2.5 nM
"CN(C)C[C@H](F)C(=O)N[C@H](C#N)Cc1ccc(-c2ccc3oc(=O)n(C)c3c2)cc1F [Compound 278, (2S)—N-[(1S)-1-cyano-2-[2-fluoro-4-(3-methyl-2-oxo-1,3-benzoxazol-5-yl)phenyl]ethyl]-3-(dimethylamino)-2-fluoropropanamide]",≥ 15 nM,≥ 2.5 nM
"CO[C@@H](CN(C)C)C(=O)N[C@H](C#N)Cc1ccc(-c2ccc3cnn(C4CCN(C5COC5)CC4)c3c2)cc1F [Compound 288, (2S)—N-[(1S)-1-cyano-2-(2-fluoro-4-{1-[1-(oxetan-3-yl)piperidin-4-yl]indazol-6-yl}phenyl)ethyl]-3-(dimethylamino)-2-methoxypropanamide]",5 to 15 nM,1 to 2.5 nM
"Cn1c(=O)oc2ccc(-c3ccc(C[C@@H](C#N)NC(=O)[C@H](N)[C@@H]4CCCO4)cc3)cc21 [Compound 213, (2R)-2-amino-N-[(1S)-1-cyano-2-[4-(3-methyl-2-oxo-1,3-benzoxazol-5-yl)phenyl]ethyl]-2-[(2S)-oxolan-2-yl]acetamide]",≥ 15 nM,≥ 2.5 nM
"Cn1c(=O)oc2ccc(-c3ccc(C[C@@H](C#N)NC(=O)C(N)Cc4ccccc4O)cc3)cc21 (stereo partly drawn) [Compound 203, 2-amino-N-[(1S)-1-cyano-2-[4-(3-methyl-2-oxo-1,3-benzoxazol-5-yl)phenyl]ethyl]-3-(2-hydroxyphenyl)propanamide]",5 to 15 nM,≥ 2.5 nM
"CN(C)C[C@H](O)C(=O)N[C@H](C#N)Cc1ccc(-c2ccc3c(c2)C(C2CCN(C4COC4)CC2)OC3)cc1 (stereo partly drawn) [Compound 281, (2S)—N-[(1S)-1-cyano-2-(4-{3-[1-(oxetan-3-yl)piperidin-4-yl]-1,3-dihydro-2-benzofuran-5-yl}phenyl)ethyl]-3-(dimethylamino)-2-hydroxypropanamide]",≥ 15 nM,≥ 2.5 nM
"CO[C@@H](CN(C)C)C(=O)N[C@H](C#N)Cc1ccc(-c2ccc3c(c2)C2(CCN(C4COC4)CC2)OC3)cc1F [Compound 284, (2S)—N-[(1S)-1-cyano-2-{2-fluoro-4-[1′-(oxetan-3-yl)-3H-spiro[2-benzofuran-1,4′-piperidin]-6-yl]phenyl}ethyl]-3-(dimethylamino)-2-methoxypropanamide]",5 to 15 nM,≥ 2.5 nM
"CN(C)CCn1c(=O)oc2ccc(-c3ccc(C[C@@H](C#N)NC(=O)C(C)(N)C4CCC4)c(F)c3)cc21 (stereo partly drawn) [Compound 268, 2-amino-N-[(1S)-1-cyano-2-(4-{3-[2-(dimethylamino)ethyl]-2-oxo-1,3-benzoxazol-5-yl}-2-fluorophenyl)ethyl]-2-cyclobutylpropanamide]",≤ 5 nM,1 to 2.5 nM
"CN(C)C[C@H](O)C(=O)N[C@H](C#N)Cc1ccc(-c2ccc3cnn(C4CCN(C5COC5)CC4)c3c2)cc1 [Compound 282, (2S)—N-[(1S)-1-cyano-2-(4-{1-[1-(oxetan-3-yl)piperidin-4-yl]indazol-6-yl}phenyl)ethyl]-3-(dimethylamino)-2-hydroxypropanamide]",≥ 15 nM,≥ 2.5 nM
"CCN1C(=O)Cc2ccc(-c3ccc(C[C@@H](C#N)NC(=O)[C@](C)(N)C4CCCC4)c(F)c3)cc21 [Compound 264B, (2R)-2-amino-N-[(1S)-1-cyano-2-[4-(1-ethyl-2-oxo-3H-indol-6-yl)-2-fluorophenyl]ethyl]-2-cyclopentylpropanamide]",≤ 5 nM,1 to 2.5 nM
"CNC[C@H](OC)C(=O)N[C@H](C#N)Cc1ccc(-c2ccc3oc(=O)n(C)c3c2)cc1 [Compound 109, (S)—N—((S)-1-cyano-2-(4-(3-methyl-2-oxo-2,3-dihydrobenzo[d]oxazol-5-yl)phenyl)ethyl)-2-methoxy-3-(methylamino)propanamide]",≥ 15 nM,≥ 2.5 nM
"Cc1cn2cc(-c3ccc(C[C@@H](C#N)NC(=O)[C@@](C)(N)C4CCC4)c(F)c3)cc2c(C)n1 [Compound 272B, (S)-2-amino-N—((S)-1-cyano-2-(4-(1,3-dimethylpyrrolo[1,2-a]pyrazin-7-yl)-2-fluorophenyl)ethyl)-2-cyclobutylpropanamide]",5 to 15 nM,1 to 2.5 nM
"CNC[C@H](O)C(=O)N[C@H](C#N)Cc1ccc(-c2ccc3oc(=O)n(C)c3c2)cc1 [Compound 111, (2S)—N-[(1S)-1-cyano-2-[4-(3-methyl-2-oxo-1,3-benzoxazol-5-yl)phenyl]ethyl]-2-hydroxy-3-(methylamino)propanamide]",≥ 15 nM,≥ 2.5 nM
"N#Cc1ccc(-c2ccc(C[C@H](C#N)NC(=O)C3(N)CCOCC3)c(I)c2)cc1 [Compound 249, 4-amino-N-[(1R)-1-cyano-2-{4′-cyano-3-iodo-[1,1′-biphenyl]-4-yl}ethyl]oxane-4-carboxamide]",≥ 15 nM,≥ 2.5 nM
"Cn1c(=O)oc2ccc(-c3ccc(C[C@@H](C#N)NC(=O)C4(N)CCCC45CC5)c(F)c3)cc21 (stereo partly drawn) [Compound 273B, (4R)-4-amino-N-[(1S)-1-cyano-2-[2-fluoro-4-(3-methyl-2-oxo-1,3-benzoxazol-5-yl)phenyl]ethyl]spiro[2.4]heptane-4-carboxamide]",≤ 5 nM,≤ 1 nM
